# Laboratory results from patent US20240208992A1, “MACROCYCLES AS CFTR MODULATORS” (Idorsia Pharmaceuticals Ltd, priority 2021, published 2024).
# Biological target: human F508del-CFTR (Homo sapiens, UniProt P13569, DEL508-508)
# Experiment: F508del-CFTR cell surface expression (corrector activity), DiscoveRx ß-galactosidase complementation chemiluminescence assay in recombinant U2OS cell line;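 further: U2OS cells co-expressing ProLink-tagged F508del-CFTR and a membrane-anchored enzyme acceptor, where more surface CFTR restores β-galactosidase activity measured by chemiluminescence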
# Conditions: U2OS cell line, 16h compound incubation; for EC50: EC50, F508del-CFTR cell surface expression, geomean values; for Emax: U2OS, in relation to the Emax of the corrector lumacaftor (=100%), arithmetic mean values
# Chain of human F508del-CFTR (P13569 with tags, fused parts or gaps DEL508-508): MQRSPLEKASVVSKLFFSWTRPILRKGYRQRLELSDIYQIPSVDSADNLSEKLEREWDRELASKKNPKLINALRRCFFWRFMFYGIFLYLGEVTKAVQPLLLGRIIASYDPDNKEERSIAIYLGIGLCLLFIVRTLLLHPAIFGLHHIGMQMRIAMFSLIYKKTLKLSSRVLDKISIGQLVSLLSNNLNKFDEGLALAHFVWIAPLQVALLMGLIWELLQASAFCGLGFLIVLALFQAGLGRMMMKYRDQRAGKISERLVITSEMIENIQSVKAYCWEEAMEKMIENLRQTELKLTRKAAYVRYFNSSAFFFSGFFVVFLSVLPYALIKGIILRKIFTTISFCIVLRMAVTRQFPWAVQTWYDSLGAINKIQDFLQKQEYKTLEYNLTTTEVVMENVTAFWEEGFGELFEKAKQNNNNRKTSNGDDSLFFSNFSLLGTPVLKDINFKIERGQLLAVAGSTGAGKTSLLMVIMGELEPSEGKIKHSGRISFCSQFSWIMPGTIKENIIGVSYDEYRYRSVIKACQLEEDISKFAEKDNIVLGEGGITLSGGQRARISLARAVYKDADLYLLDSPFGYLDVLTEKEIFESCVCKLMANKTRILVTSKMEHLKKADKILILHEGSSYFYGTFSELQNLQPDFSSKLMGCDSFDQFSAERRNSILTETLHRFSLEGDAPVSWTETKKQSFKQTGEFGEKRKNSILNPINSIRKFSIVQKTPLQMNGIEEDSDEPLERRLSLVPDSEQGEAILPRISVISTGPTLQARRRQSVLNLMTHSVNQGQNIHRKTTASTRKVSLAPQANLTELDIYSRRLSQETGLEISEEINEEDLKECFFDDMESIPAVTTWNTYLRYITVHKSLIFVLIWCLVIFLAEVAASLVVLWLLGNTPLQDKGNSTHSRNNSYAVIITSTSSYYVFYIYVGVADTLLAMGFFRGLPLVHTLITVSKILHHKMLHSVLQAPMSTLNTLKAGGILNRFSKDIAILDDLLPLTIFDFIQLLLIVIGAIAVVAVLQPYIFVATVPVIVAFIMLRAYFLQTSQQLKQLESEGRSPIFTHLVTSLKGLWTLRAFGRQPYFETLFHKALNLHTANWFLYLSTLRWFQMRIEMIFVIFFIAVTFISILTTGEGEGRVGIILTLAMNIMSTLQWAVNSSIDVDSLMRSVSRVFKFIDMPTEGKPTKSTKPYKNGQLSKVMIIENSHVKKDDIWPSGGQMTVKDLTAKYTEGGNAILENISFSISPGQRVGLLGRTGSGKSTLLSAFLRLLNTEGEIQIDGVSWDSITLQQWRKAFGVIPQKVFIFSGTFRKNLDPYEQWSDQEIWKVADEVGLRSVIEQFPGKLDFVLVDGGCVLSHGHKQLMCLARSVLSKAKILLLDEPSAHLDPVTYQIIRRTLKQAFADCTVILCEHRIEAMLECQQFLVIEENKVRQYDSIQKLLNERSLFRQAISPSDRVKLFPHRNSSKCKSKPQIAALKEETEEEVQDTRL
SMILES,EC50,Emax
"COc1cc2c(cc1OC)C(=O)N[C@H](C(=O)NCCc1ccc3c(c1)OCCCC3)CC(=O)N(C)[C@@H](CC(C)C)C(=O)N(C)CC(=O)N[C@H](Cc1ccccc1)CO2 [Example 161, (3R,9S,13S)-3-benzyl-9-isobutyl-17,18-dimethoxy-7,10-dimethyl-5,8,11,15-tetraoxo-N-(2-(2,3,4,5-tetrahydrobenzo[b]oxepin-8-yl)ethyl)-2,3,4,5,6,7,8,9,10,11,12,13,14,15-tetradecahydrobenzo[p][1]oxa[4,7,10,14]tetraazacycloheptadecine-13-carboxamide]",250 nM,137%
"CC(C)C[C@H]1C(=O)N(C)C2(CC2)C(=O)N[C@H](Cc2ccccc2)COc2cnc3ccc(F)cc3c2C(=O)N[C@H](C(=O)NCCc2cccc(S(C)(=O)=O)c2)CC(=O)N1C [Example 167, (3′S,7′S,13′R)-13′-benzyl-20′-fluoro-7′-isobutyl-6′,9′-dimethyl-N-(3-(methylsulfonyl)phenethyl)-1′,5′,8′,11′-tetraoxo-2′,3′,4′,5′,6′,7′,8′,9′,11′,12′,13′,14′-dodecahydro-1′H-spiro[cyclopropane-1,10′-[1]oxa[4,7,10,14]tetraazacycloheptadecino[17,16-c]quinoline]-3′-carboxamide]",822 nM,238%
"CC(C)C[C@H]1C(=O)N(C)C2(CC2)C(=O)N[C@H](Cc2ccccc2)COc2cnc3ccc(F)cc3c2C(=O)N[C@H](C(=O)NCCc2cccc(C(F)(F)F)c2)CC(=O)N1C [Example 169, (3′S,7′S,13′R)-13′-benzyl-20′-fluoro-7′-isobutyl-6′,9′-dimethyl-1′,5′,8′,11′-tetraoxo-N-(3-(trifluoromethyl)phenethyl)-2′,3′,4′,5′,6′,7′,8′,9′,11′,12′,13′,14′-dodecahydro-1′H-spiro[cyclopropane-1,10′-[1]oxa[4,7,10,14]tetraazacycloheptadecino[17,16-c]quinoline]-3′-carboxamide]",334 nM,170%
"CC(C)C[C@H]1C(=O)N(C)C2(CC2)C(=O)N[C@H](Cc2ccccc2)COc2cnc3ccc(F)cc3c2C(=O)N[C@H](C(=O)NCCc2ccc(N3CCOCC3)cc2)CC(=O)N1C [Example 170, (3′S,7′S,13′R)-13′-benzyl-20′-fluoro-7′-isobutyl-6′,9′-dimethyl-N-(4-morpholinophenethyl)-1′,5′,8′,11′-tetraoxo-2′,3′,4′,5′,6′,7′,8′,9′,11′,12′,13′,14′-dodecahydro-1′H-spiro[cyclopropane-1,10′-[1]oxa[4,7,10,14]tetraazacycloheptadecino[17,16-c]quinoline]-3′-carboxamide]",329 nM,267%
"CC(C)C[C@H]1C(=O)N2CCCC[C@@H]2C(=O)N[C@H](Cc2ccccc2)COc2cnc3ccc(F)cc3c2C(=O)N[C@H](C(=O)NCCc2noc(C(C)C)n2)CC(=O)N1C [Example 171, (9S,13S,19aR,22R)-22-benzyl-5-fluoro-13-isobutyl-N-(2-(5-isopropyl-1,2,4-oxadiazol-3-yl)ethyl)-12-methyl-7,11,14,20-tetraoxo-7,8,9,10,11,12,13,14,17,18,19,19a,20,21,22,23-hexadecahydro-16H-pyrido[2′,1′:6,7][1]oxa[4,7,10,14]tetraazacycloheptadecino[17,16-c]quinoline-9-carboxamide]",144 nM,301%
"CC(C)C[C@H]1C(=O)N(C)C2(CC2)C(=O)N[C@H](Cc2ccccc2)COc2cnc3ccc(F)cc3c2C(=O)N[C@H](C(=O)NCCn2cc(C3CC3)cn2)CC(=O)N1C [Example 172, (3′S,7′S,13′R)-13′-benzyl-N-(2-(4-cyclopropyl-1H-pyrazol-1-yl)ethyl)-20′-fluoro-7′-isobutyl-6′,9′-dimethyl-1′,5′,8′,11′-tetraoxo-2′,3′,4′,5′,6′,7′,8′,9′,11′,12′,13′,14′-dodecahydro-1′H-spiro[cyclopropane-1,10′-[1]oxa[4,7,10,14]tetraazacycloheptadecino[17,16-c]quinoline]-3′-carboxamide]",324 nM,213%
"COc1nccc2c1C(=O)N[C@H](C(=O)NCCc1cnn(C3CC3)c1)CC(=O)N(C)[C@@H](CC(C)C)C(=O)N1CCCC[C@@H]1C(=O)N[C@H](Cc1ccccc1)CO2 [Example 176, (7S,11S,17aR,20R)-20-benzyl-N-(2-(1-cyclopropyl-1H-pyrazol-4-yl)ethyl)-11-isobutyl-4-methoxy-10-methyl-5,9,12,18-tetraoxo-5,6,7,8,9,10,11,12,15,16,17,17a,18,19,20,21-hexadecahydro-14H-dipyrido[2,1-f:3′,4′-p][1]oxa[4,7,10,14]tetraazacycloheptadecine-7-carboxamide]",821 nM,245%
"COc1nccc2c1C(=O)N[C@H](C(=O)NCCc1cc(C(F)(F)F)no1)CC(=O)N(C)[C@@H](CC(C)C)C(=O)N1CCCC[C@@H]1C(=O)N[C@H](Cc1ccccc1)CO2 [Example 177, (7S,11S,17aR,20R)-20-benzyl-11-isobutyl-4-methoxy-10-methyl-5,9,12,18-tetraoxo-N-(2-(3-(trifluoromethyl)isoxazol-5-yl)ethyl)-5,6,7,8,9,10,11,12,15,16,17,17a,18,19,20,21-hexadecahydro-14H-dipyrido[2,1-f:3′,4′-p][1]oxa[4,7,10,14]tetraazacycloheptadecine-7-carboxamide]",647 nM,248%
"COc1nccc2c1C(=O)N[C@H](C(=O)NCCc1nc(C(F)(F)F)no1)CC(=O)N(C)[C@@H](CC(C)C)C(=O)N1CCCC[C@@H]1C(=O)N[C@H](Cc1ccccc1)CO2 [Example 178, (7S,11S,17aR,20R)-20-benzyl-11-isobutyl-4-methoxy-10-methyl-5,9,12,18-tetraoxo-N-(2-(3-(trifluoromethyl)-1,2,4-oxadiazol-5-yl)ethyl)-5,6,7,8,9,10,11,12,15,16,17,17a,18,19,20,21-hexadecahydro-14H-dipyrido[2,1-f:3′,4′-p][1]oxa[4,7,10,14]tetraazacycloheptadecine-7-carboxamide]",680 nM,237%
"COc1nccc2c1C(=O)N[C@H](C(=O)NCCn1cc(C3CC3)cn1)CC(=O)N(C)[C@@H](CC(C)C)C(=O)N1CCCC[C@@H]1C(=O)N[C@H](Cc1ccccc1)CO2 [Example 179, (7S,11S,17aR,20R)-20-benzyl-N-(2-(4-cyclopropyl-1H-pyrazol-1-yl)ethyl)-11-isobutyl-4-methoxy-10-methyl-5,9,12,18-tetraoxo-5,6,7,8,9,10,11,12,15,16,17,17a,18,19,20,21-hexadecahydro-14H-dipyrido[2,1-f:3′,4′-p][1]oxa[4,7,10,14]tetraazacycloheptadecine-7-carboxamide]",731 nM,251%

# Continued, values first:
EC50,Emax,SMILES
624 nM,111%,"COc1ccc(C2(CNC(=O)[C@@H]3CC(=O)N(C)[C@@H](CC(C)C)C(=O)N(C)C4(CC4)C(=O)N[C@H](Cc4ccccc4)COc4cnc5ccc(F)cc5c4C(=O)N3)CC2)cc1OC [Example 166, (3′S,7′S,13′R)-13′-benzyl-N-((1-(3,4-dimethoxyphenyl)cyclopropyl)methyl)-20′-fluoro-7′-isobutyl-6′,9′-dimethyl-1′,5′,8′,11′-tetraoxo-2′,3′,4′,5′,6′,7′,8′,9′,11′,12′,13′,14′-dodecahydro-1′H-spiro[cyclopropane-1,10′-[1]oxa[4,7,10,14]tetraazacycloheptadecino[17,16-c]quinoline]-3′-carboxamide]"
338 nM,193%,"CC(C)C[C@H]1C(=O)N(C)C2(CC2)C(=O)N[C@H](Cc2ccccc2)COc2cnc3ccc(F)cc3c2C(=O)N[C@H](C(=O)NCCc2cccc(C#N)c2)CC(=O)N1C [Example 168, (3′S,7′S,13′R)-13′-benzyl-N-(3-cyanophenethyl)-20′-fluoro-7′-isobutyl-6′,9′-dimethyl-1′,5′,8′,11′-tetraoxo-2′,3′,4′,5′,6′,7′,8′,9′,11′,12′,13′,14′-dodecahydro-1′H-spiro[cyclopropane-1,10′-[1]oxa[4,7,10,14]tetraazacycloheptadecino[17,16-c]quinoline]-3′-carboxamide]"
455 nM,212%,"CC(C)C[C@H]1C(=O)N(C)C2(CC2)C(=O)N[C@H](Cc2ccccc2)COc2cnc3ccc(F)cc3c2C(=O)N[C@H](C(=O)NCCn2cc(Br)cn2)CC(=O)N1C [Example 173, (3′S,7′S,13′R)-13′-benzyl-N-(2-(4-bromo-1H-pyrazol-1-yl)ethyl)-20′-fluoro-7′-isobutyl-6′,9′-dimethyl-1′,5′,8′,11′-tetraoxo-2′,3′,4′,5′,6′,7′,8′,9′,11′,12′,13′,14′-dodecahydro-1′H-spiro[cyclopropane-1,10′-[1]oxa[4,7,10,14]tetraazacycloheptadecino[17,16-c]quinoline]-3′-carboxamide]"
954 nM,194%,"COCCCc1cnn(CCNC(=O)[C@@H]2CC(=O)N(C)[C@@H](CC(C)C)C(=O)N(C)C3(CC3)C(=O)N[C@H](Cc3ccccc3)COc3cnc4ccc(F)cc4c3C(=O)N2)c1 [Example 174, (3′S,7′S,13′R)-13′-benzyl-20′-fluoro-7′-isobutyl-N-(2-(4-(3-methoxypropyl)-1H-pyrazol-1-yl)ethyl)-6′,9′-dimethyl-1′,5′,8′,11′-tetraoxo-2′,3′,4′,5′,6′,7′,8′,9′,11′,12′,13′,14′-dodecahydro-1′H-spiro[cyclopropane-1,10′-[1]oxa[4,7,10,14]tetraazacycloheptadecino[17,16-c]quinoline]-3′-carboxamide]"
229 nM,179%,"COc1cccc(C(F)(F)CNC(=O)[C@@H]2CC(=O)N(C)[C@@H](CC(C)C)C(=O)N(C)C3(CC3)C(=O)N[C@H](Cc3ccccc3)COc3cnc4ccccc4c3C(=O)N2)c1 [Example 175, (3′S,7′S,13′R)-13′-benzyl-N-(2,2-difluoro-2-(3-methoxyphenyl)ethyl)-7′-isobutyl-6′,9′-dimethyl-1′,5′,8′,11′-tetraoxo-2′,3′,4′,5′,6′,7′,8′,9′,11′,12′,13′,14′-dodecahydro-1′H-spiro[cyclopropane-1,10′-[1]oxa[4,7,10,14]tetraazacycloheptadecino[17,16-c]quinoline]-3′-carboxamide]"
